{
  "source": "patent US20160106813A1",
  "about": "(CENTRE NATIONAL DE LA RECHERCHE SCHIENTIFIQUE (CNRS), priority 2013, published 2016)",
  "key": {"[1]": {"test_system": "HIV-1", "conditions": "agent added during co-culture; dose-dependent", "method": "Normal goat IgG, neutralizing CCL3/MIP-1α goat Ab (R&D systems, Minneapolis, Minn., USA), or the NFκB inhibitor BAY117082 (Santa Cruz Biotechnology, Santa Cruz, Calif., USA), were included during the co-culture period (MDLC-TC) described previously. HIV-1 replication was measured in the co-culture supernatants a week later by p24 ELISA (Innotest; Innogenetics, Gent, Belgium)."}, "[2]": {"test_system": "CCL3/MIP-1α", "test": "CCL3/MIP-1α levels in LC-TC co-culture supernatants, multiplex assay and flow cytometry", "format": "cell-based, human", "conditions": "highest concentration of BAY117082, n=4"}, "[3]": {"test_system": "HIV-1 JRCSF", "test": "HIV-1 transfer from monocyte-derived Langerhans cells (MDLC) to CD4+ T-cells, p24 ELISA of co-culture supernatants", "format": "cell-based", "procedure": "Peripheral blood mononuclear cells (PBMCs) from healthy donors were separated from whole blood by a standard Ficoll gradient. CD14+ monocytes and CD4+ TCs were obtained from PBMCs by negative magnetic selection (Stemcell Technologies, Grenoble, France) according to the manufacturer's instructions. MDLC were prepared and maintained as described (Masterson et al., Blood 100:701-703; Geissmann et al., J Exp Med 187:961-966.)"}},
  "note": "Ends that are not written are not given here.",
  "data": [
    {"molecule": "Cc1ccc(S(=O)(=O)/C=C/C#N)cc1", "note": "[BAY117082]", "values": [
      {"measurement": "effect on CGRP-mediated HIV-1 transfer inhibition", "setting": "[1]", "result": "abrogated"},
      {"measurement": "CGRP-induced CCL3/MIP-1α secretion in presence of inhibitor, mean±s.e.m fold", "setting": "[2]", "result": "1.0±0.1", "unit": "fold"}
    ]},
    {"molecule": "Ala-Cys-Asn-Thr-Ala-Thr-Cys-Val-Thr-His-Arg-Leu-Ala-Gly-Leu-Leu-Ser-Arg-Ser-Gly-Gly-Met-Val-Lys-Ser-Asn-Phe-Val-Pro-Thr-Asn-Val-Gly-Ser-Lys-Ala-Phe-NH2 (ACNTATCVTHRLAGLLSRSGGMVKSNFVPTNVGSKAF-NH2; ends and bridges not checked) [beta CGRP]", "values": [
      {"measurement": "HIV-1 transfer from Langerhans cells to TCs (in words)", "setting": "[3]; MDLCs pretreated with the peptide, pulsed with HIV-1 JRCSF (R5), co-cultured a week with CD4+ TCs", "result": "inhibit HIV-1 transfer"}
    ]},
    {"molecule": "CGRP8-37: truncated CGRP receptor antagonist (VTHRLAGLLSRSGGVVKNNFVPTNVGSKAF; ends and bridges not checked; UniProt P06881 90-119, looked up, fragment)", "values": [
      {"measurement": "effect on the inhibitory effect of CGRP on HIV-1 transfer", "setting": "[3]; 1000 nM CGRP8-37 added 10 min before CGRP", "result": "completely abrogated"}
    ]}
  ]
}
